Marks after values point to notes of the source that are not given here.
Tests used:
[1] = test system: healthy female volunteers; assay: Phase 1 study: antiemetic effect of oral olanzapine doses after apomorphine challenge; assay type: in vivo, human; settings: for Nausea Score 1-120 min. / Nausea Score 1-120 min. (severity in words) / Retching (incidence) / Vomiting (incidence): apomorphine challenge day 8; for Nausea Score 1-120 min.: 1=no nausea, 10=severe nausea
Protocol: Twenty-four healthy female volunteers were enrolled. Four active-treatment groups and a cohort of placebo-treated subjects were evaluated.
Subjects were administered study drug once daily for 8 days. During this period, subjects maintained a study diary of their side effects. The subject diary was used to collect on a daily basis any adverse events including an assessment of the presence and/or intensity of sedation on a numeric scale where 1=no sedation and 10=excessive sedation.
On the 8th day, subjects were administered apomorphine at a dose of 0.05 mg/kg and assessed over 6 hours. During this period, subjects were asked to record episodes of nausea on a numeric scale every 15 minutes for the duration of assessment. The intensity of nausea was captured using a 1-10 rating scale where 1=no nausea and 10=severe nausea. Emesis intensity was also captured where 1=no emesis and 10=severe emesis. Episodes of retching or emesis were collected and measured for the absolute number of retches or vomits during the collection period and documented for the time of the specific event following the administration of the apomorphine.

[2] = clinical; settings: human, plasma, po
[3] = oral, statistical integration of nausea scores and incidence of retching and vomiting

SMILES: Cc1cc2c(s1)Nc1ccccc1N=C2N1CCN(C)CC1 [olanzapine, 2-methyl-10-(4-methyl-1-piperazinyl)-4H-thieno-[2,3-b][1.5]benzo-diazepine]
- Nausea severity scores 0-120 min following apomorphine challenge, versus placebo ([1]; 2 mg and 8 mg doses): not significantly different than placebo
- Nausea severity scores 0-120 min following apomorphine challenge, versus placebo ([1]; 4 mg and 6 mg steady state doses, p<0.05): significantly different than placebo
- maximum intensity of nausea, compared between doses ([1]; between the 4 mg, 6 mg and 8 mg dose): no different
- Nausea Score 1-120 min. ([1]; oral 2 mg a day for 8 days): 6**
- Nausea Score 1-120 min. (severity in words) ([1]; oral 2 mg a day): Moderate
- Retching (incidence) ([1]; oral 2 mg a day): 40%
- Vomiting (incidence) ([1]; oral 2 mg a day): 40%
- Nausea Score 1-120 min. ([1]; oral 4 mg a day for 8 days): 3.4 #
- Nausea Score 1-120 min. (severity in words) ([1]; oral 4 mg a day): Mild
- Retching (incidence) ([1]; oral 4 mg a day): 0%
- Vomiting (incidence) ([1]; oral 4 mg a day): 20%
- Nausea Score 1-120 min. ([1]; oral 6 mg a day for 8 days): 3.7 #
- Nausea Score 1-120 min. (severity in words) ([1]; oral 6 mg a day): Mild
- Retching (incidence) ([1]; oral 6 mg a day): 0%
- Vomiting (incidence) ([1]; oral 6 mg a day): 0%
- Nausea Score 1-120 min. ([1]; oral 8 mg a day for 8 days): 5**
- Nausea Score 1-120 min. (severity in words) ([1]; oral 8 mg a day): Mild
- Retching (incidence) ([1]; oral 8 mg a day): 20%
- Vomiting (incidence) ([1]; oral 8 mg a day): 20%
- minimum effective dose for nausea [1, 3]: 4 mg a day
- optimal dose for nausea and vomiting [1, 3]: 6 mg a day
- Cmax at 1 day ([2]; 4 mg): 4 to 6 ng/mL
- Cmax at 1 day ([2]; 6 mg): 6 to 9 ng/mL

From patent US20240009204A1 (Starton Therapeutics, Inc., priority 2020, published 2024)
